{
  "source": "paper PMC5762315",
  "about": "“Inhibition of polo-like kinase 4 (PLK4): a new therapeutic option for rhabdoid tumors and pediatric medulloblastoma” (Oncotarget, 2017)",
  "assay_in_all_cases": "biochemical",
  "type_in_all_cases": "biochemical",
  "key": {"[1]": {"target": "various kinases (Homo sapiens, UniProt Q86Z02)", "settings": "HIPK1 (Myak)"}, "[2]": {"target": "various kinases (Homo sapiens, UniProt O15075)", "settings": "DCAMKL1 (DCLK1)"}, "[3]": {"target": "various kinases (Homo sapiens, UniProt P05129)", "settings": "kinase PRKCG (PKC gamma); ZLYTE"}, "[4]": {"target": "various kinases (Homo sapiens, UniProt P10721, V559D/V654A)", "settings": "KIT V559D V654A"}, "[5]": {"target": "various kinases (Homo sapiens, UniProt Q6DT37)", "settings": "CDC42 BPG (MRCKG)"}, "[6]": {"target": "various kinases (Homo sapiens, UniProt O75914)", "settings": "PAK3"}, "[7]": {"target": "various kinases (Homo sapiens, UniProt Q9H4B4)", "sequence (Q9H4B4 whole entry)": "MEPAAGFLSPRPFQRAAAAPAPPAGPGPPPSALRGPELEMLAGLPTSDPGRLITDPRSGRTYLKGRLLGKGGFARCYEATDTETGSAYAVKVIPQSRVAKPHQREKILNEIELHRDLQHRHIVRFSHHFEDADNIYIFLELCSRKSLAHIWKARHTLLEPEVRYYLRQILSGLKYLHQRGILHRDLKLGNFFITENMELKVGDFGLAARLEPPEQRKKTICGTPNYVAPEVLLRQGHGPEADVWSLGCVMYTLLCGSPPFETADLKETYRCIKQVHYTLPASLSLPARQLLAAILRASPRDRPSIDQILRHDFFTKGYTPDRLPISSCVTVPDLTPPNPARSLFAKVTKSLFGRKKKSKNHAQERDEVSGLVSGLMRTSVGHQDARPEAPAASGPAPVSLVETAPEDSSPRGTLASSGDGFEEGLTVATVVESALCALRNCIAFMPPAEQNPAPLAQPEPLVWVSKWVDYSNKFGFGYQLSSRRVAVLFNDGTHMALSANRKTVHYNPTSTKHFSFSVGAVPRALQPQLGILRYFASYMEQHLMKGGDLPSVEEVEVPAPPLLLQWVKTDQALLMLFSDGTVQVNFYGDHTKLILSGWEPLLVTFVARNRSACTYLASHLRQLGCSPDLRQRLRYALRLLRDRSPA", "settings": "kinase PLK3; ZLYTE"}, "[8]": {"target": "various kinases (Homo sapiens, UniProt Q13153)", "settings": "PAK1"}, "[9]": {"target": "various kinases (Homo sapiens, UniProt P11309)", "settings": "PIM1"}, "[10]": {"target": "various kinases (Homo sapiens, UniProt P49674, R178C)", "settings": "CSNK1E (CK1 epsilon) R178C"}, "[11]": {"target": "various kinases (Homo sapiens, UniProt Q86V86)", "settings": "PIM3"}, "[12]": {"target": "various kinases (Homo sapiens, UniProt Q8TDX7)", "sequence (Q8TDX7 whole entry)": "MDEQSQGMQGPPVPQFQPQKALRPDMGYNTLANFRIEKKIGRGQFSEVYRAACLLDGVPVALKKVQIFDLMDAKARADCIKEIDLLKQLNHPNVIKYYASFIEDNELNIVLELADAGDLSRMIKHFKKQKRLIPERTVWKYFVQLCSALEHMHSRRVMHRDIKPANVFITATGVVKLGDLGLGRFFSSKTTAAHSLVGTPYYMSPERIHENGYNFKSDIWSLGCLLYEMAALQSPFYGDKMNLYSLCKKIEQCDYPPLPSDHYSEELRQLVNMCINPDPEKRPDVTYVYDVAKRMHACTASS", "settings": "NEK7"}, "[13]": {"target": "various kinases (Homo sapiens, UniProt Q16816)", "settings": "PHKG1"}, "[14]": {"target": "various kinases (Homo sapiens, UniProt P07333)", "settings": "CSF1R (FMS)"}, "[15]": {"target": "various kinases (Homo sapiens, UniProt Q05397)", "sequence (Q05397 whole entry)": "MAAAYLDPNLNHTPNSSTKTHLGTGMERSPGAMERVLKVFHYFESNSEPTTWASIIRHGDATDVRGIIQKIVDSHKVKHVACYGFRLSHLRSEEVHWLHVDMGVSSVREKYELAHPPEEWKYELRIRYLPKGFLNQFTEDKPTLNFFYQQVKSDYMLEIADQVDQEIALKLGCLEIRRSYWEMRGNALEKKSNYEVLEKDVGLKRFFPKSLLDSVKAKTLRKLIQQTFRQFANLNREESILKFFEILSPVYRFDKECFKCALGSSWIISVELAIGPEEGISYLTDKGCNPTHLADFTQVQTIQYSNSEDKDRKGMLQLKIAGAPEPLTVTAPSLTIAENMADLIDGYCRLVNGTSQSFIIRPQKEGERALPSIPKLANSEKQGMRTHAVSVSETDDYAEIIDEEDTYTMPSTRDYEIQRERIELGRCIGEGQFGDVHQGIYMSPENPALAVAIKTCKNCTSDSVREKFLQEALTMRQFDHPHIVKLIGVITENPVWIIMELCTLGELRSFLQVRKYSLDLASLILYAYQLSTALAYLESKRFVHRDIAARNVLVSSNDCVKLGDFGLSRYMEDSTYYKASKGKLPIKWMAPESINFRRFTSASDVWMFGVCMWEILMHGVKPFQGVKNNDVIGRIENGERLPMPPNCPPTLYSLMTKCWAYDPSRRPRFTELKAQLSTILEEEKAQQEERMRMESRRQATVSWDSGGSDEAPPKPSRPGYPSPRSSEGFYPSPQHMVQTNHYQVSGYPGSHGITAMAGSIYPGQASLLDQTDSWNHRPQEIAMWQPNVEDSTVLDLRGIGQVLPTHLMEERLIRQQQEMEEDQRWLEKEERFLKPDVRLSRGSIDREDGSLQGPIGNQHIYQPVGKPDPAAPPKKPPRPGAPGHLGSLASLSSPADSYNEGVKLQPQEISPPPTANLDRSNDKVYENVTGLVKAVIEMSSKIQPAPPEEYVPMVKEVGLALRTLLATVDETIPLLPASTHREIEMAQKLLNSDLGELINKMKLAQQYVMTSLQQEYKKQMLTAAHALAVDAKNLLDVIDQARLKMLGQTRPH", "settings": "kinase PTK2 (FAK); ZLYTE"}, "[16]": {"target": "various kinases (Homo sapiens, UniProt Q13177)", "settings": "PAK2 (PAK65)"}, "[17]": {"target": "T1, various kinases (Homo sapiens, UniProt Q13237)", "T1 sequence (Q13237 1-762)": "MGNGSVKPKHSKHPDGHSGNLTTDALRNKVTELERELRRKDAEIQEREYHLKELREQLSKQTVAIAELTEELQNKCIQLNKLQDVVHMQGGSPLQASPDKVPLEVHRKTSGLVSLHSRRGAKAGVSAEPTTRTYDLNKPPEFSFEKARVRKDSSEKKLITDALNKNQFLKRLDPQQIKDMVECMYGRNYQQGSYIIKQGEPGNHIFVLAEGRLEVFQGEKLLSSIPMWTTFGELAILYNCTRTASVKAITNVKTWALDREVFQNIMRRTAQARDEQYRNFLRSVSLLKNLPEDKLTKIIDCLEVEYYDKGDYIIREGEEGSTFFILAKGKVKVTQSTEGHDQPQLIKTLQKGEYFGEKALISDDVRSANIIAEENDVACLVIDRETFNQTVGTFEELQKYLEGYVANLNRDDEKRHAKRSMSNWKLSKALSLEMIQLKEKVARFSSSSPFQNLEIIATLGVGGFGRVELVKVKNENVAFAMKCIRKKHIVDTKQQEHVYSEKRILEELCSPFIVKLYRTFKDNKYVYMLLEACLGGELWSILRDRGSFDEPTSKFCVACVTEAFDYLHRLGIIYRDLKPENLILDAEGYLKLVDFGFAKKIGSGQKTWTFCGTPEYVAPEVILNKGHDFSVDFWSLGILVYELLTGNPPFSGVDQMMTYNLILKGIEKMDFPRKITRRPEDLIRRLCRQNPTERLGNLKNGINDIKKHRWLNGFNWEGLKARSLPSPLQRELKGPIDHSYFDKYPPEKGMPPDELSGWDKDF", "settings": "kinase PRKG2 (PKG2); ZLYTE"}, "[18]": {"target": "T2, various kinases (Homo sapiens, UniProt Q96PF2)", "T2 sequence (Q96PF2 1-358)": "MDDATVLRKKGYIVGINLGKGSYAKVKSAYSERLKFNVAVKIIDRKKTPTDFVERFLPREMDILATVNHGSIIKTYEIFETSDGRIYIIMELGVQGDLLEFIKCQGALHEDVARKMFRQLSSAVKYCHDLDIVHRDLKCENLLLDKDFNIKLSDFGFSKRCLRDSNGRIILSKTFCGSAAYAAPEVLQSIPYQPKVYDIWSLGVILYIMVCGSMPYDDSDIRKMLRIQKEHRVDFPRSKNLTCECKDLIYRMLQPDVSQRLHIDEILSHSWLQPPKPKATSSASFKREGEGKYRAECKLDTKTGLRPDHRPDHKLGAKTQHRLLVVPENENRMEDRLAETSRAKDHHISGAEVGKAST", "settings": "kinase STK22B (TSSK2); ZLYTE"}, "[19]": {"target": "various kinases (Homo sapiens, UniProt O96017)", "sequence (O96017 whole entry)": "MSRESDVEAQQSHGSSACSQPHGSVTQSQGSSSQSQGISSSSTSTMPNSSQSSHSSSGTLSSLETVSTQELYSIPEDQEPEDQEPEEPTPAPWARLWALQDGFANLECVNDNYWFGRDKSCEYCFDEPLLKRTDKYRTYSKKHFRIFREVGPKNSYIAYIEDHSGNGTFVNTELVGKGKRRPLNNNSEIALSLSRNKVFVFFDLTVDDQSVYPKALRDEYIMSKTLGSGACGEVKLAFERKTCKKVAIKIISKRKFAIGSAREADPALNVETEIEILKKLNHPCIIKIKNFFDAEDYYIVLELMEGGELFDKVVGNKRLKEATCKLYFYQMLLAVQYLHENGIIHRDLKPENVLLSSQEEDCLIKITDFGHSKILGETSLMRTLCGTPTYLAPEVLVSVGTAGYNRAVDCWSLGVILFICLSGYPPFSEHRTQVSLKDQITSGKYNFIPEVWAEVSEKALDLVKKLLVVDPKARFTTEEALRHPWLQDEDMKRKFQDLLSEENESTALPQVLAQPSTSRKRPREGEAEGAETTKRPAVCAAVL", "settings": "CHEK2 (CHK2)"}, "[20]": {"target": "various kinases (Homo sapiens, UniProt P07949)", "sequence (P07949 29-1114)": "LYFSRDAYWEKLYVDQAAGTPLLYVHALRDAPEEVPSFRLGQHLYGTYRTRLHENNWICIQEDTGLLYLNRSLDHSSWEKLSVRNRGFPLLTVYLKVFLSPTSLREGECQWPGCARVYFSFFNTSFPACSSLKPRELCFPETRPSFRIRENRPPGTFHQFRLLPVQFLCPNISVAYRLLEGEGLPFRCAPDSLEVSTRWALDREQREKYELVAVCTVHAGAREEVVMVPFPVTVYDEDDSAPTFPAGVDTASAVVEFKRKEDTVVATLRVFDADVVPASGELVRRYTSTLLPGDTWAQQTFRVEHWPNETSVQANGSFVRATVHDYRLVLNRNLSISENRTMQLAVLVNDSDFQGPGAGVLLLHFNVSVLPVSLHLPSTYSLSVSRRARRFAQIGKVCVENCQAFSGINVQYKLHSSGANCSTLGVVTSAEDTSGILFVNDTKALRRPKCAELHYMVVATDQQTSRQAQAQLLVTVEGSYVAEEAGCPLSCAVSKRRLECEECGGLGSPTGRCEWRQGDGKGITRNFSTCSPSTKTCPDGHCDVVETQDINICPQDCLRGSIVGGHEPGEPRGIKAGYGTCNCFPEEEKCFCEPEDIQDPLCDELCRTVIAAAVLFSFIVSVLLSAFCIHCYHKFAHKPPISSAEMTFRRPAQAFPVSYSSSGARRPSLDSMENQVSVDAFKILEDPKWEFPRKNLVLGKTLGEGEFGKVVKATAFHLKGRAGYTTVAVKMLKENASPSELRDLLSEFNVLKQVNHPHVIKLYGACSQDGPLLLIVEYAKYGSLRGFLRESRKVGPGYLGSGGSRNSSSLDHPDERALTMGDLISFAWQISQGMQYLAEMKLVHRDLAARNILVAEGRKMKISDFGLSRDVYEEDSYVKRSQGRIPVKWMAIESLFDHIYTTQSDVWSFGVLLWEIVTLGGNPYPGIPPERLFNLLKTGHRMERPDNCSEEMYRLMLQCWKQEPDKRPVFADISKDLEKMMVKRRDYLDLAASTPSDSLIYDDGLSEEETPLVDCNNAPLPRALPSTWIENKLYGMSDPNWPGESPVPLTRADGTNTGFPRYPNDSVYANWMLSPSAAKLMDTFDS", "settings": "kinase RET; ZLYTE"}, "[21]": {"target": "various kinases (Homo sapiens, UniProt P00519, F317L)", "settings": "ABL1 F317L"}, "[22]": {"target": "various kinases (Homo sapiens, UniProt P53350)", "sequence (P53350 whole entry)": "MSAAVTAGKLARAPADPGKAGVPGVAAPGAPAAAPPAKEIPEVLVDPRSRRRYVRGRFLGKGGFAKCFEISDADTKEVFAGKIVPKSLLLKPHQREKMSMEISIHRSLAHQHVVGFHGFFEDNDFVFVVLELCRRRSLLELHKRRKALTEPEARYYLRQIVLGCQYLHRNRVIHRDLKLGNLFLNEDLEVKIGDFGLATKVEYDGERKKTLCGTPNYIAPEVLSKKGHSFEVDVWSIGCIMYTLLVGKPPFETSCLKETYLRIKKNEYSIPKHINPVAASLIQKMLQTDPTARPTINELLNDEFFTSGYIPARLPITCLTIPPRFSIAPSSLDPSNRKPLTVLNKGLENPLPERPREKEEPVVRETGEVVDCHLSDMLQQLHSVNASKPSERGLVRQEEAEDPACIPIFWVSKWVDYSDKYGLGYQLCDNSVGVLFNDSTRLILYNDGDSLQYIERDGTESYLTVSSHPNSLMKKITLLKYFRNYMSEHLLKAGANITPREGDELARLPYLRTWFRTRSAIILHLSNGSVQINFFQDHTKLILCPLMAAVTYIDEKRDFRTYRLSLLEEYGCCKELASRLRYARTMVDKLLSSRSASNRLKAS", "settings": "kinase PLK1; ZLYTE"}, "[23]": {"target": "various kinases (Homo sapiens, UniProt Q12851)", "settings": "MAP4K2 (GCK)"}, "[24]": {"target": "various kinases (Homo sapiens, UniProt P49761)", "settings": "CLK3"}},
  "note": "“And” between values parts separate entries of the source, which are not always exact repeats. Equal entries are not always repeated. Throughout, for % Inhibition Average: test concentration or dose not given here. Throughout, for % Inhibition Duplicate #1: test concentration or dose not given here. Throughout, for % Inhibition Duplicate #2: test concentration or dose not given here.",
  "data": [
    {"smiles": "COc1ccc2c(c1)[C@]1(C[C@H]1c1ccc3c(/C=C/c4ccc(CN5C[C@@H](C)O[C@@H](C)C5)cc4)n[nH]c3c1)C(=O)N2", "note": "[CFI-400945]", "values": [
      {"measurement": "% Inhibition", "setting": "[1]", "value": 0, "unit": "%"},
      {"measurement": "% Inhibition", "setting": "[2]", "value": -2, "unit": "%"},
      {"measurement": "% Inhibition Average", "setting": "[3]", "value": -5, "unit": "%"},
      {"measurement": "% Inhibition Duplicate #1", "setting": "[3]", "value": -13, "unit": "%"},
      {"measurement": "% Inhibition Duplicate #2", "setting": "[3]", "value": 3, "unit": "%"},
      {"measurement": "% Inhibition", "setting": "[4]", "value": "5% and 6%"},
      {"measurement": "% Inhibition", "setting": "[5]", "value": "0% and -1%"},
      {"measurement": "% Inhibition", "setting": "[6]", "value": "11% and 5%"},
      {"measurement": "% Inhibition Average", "setting": "[7]", "value": -2, "unit": "%"},
      {"measurement": "% Inhibition Duplicate #1", "setting": "[7]", "value": -7, "unit": "%"},
      {"measurement": "% Inhibition Duplicate #2", "setting": "[7]", "value": 3, "unit": "%"},
      {"measurement": "% Inhibition", "setting": "[8]", "value": "11% and 6%"},
      {"measurement": "% Inhibition", "setting": "[9]", "value": "2% and 3%"},
      {"measurement": "% Inhibition", "setting": "[10]", "value": 1, "unit": "%"},
      {"measurement": "% Inhibition", "setting": "[11]", "value": "-1% and 0%"},
      {"measurement": "% Inhibition", "setting": "[12]", "value": "0% and 6%"},
      {"measurement": "% Inhibition", "setting": "[13]", "value": "10% and 7%"},
      {"measurement": "% Inhibition", "setting": "[14]", "value": "14% and 15%"},
      {"measurement": "% Inhibition Average", "setting": "[15]", "value": 4, "unit": "%"},
      {"measurement": "% Inhibition Duplicate #1", "setting": "[15]", "value": 5, "unit": "%"},
      {"measurement": "% Inhibition Duplicate #2", "setting": "[15]", "value": 3, "unit": "%"},
      {"measurement": "% Inhibition", "setting": "[16]", "value": "17% and 8%"},
      {"measurement": "% Inhibition Average", "setting": "[17]", "value": 1, "unit": "%"},
      {"measurement": "% Inhibition Duplicate #1", "setting": "[17]", "value": 2, "unit": "%"},
      {"measurement": "% Inhibition Duplicate #2", "setting": "[17]", "value": 0, "unit": "%"},
      {"measurement": "% Inhibition Average", "setting": "[18]", "value": 3, "unit": "%"},
      {"measurement": "% Inhibition Duplicate #1", "setting": "[18]", "value": 4, "unit": "%"},
      {"measurement": "% Inhibition Duplicate #2", "setting": "[18]", "value": 2, "unit": "%"},
      {"measurement": "% Inhibition", "setting": "[19]", "value": "3% and 2%"},
      {"measurement": "% Inhibition Average", "setting": "[20]", "value": 16, "unit": "%"},
      {"measurement": "% Inhibition Duplicate #1", "setting": "[20]", "value": 14, "unit": "%"},
      {"measurement": "% Inhibition Duplicate #2", "setting": "[20]", "value": 18, "unit": "%"},
      {"measurement": "% Inhibition", "setting": "[21]", "value": "13% and 16%"},
      {"measurement": "% Inhibition Average", "setting": "[22]", "value": 5, "unit": "%"},
      {"measurement": "% Inhibition Duplicate #1", "setting": "[22]", "value": 6, "unit": "%"},
      {"measurement": "% Inhibition Duplicate #2", "setting": "[22]", "value": 5, "unit": "%"},
      {"measurement": "% Inhibition", "setting": "[23]", "value": "43% and 39%"},
      {"measurement": "% Inhibition", "setting": "[24]", "value": "2% and 0%"}
    ]}
  ]
}
